Drawing on patent US10653651B2, “Kit for treating cancer with low molecular weight components of aurin tricarboxylic acid complex” (Aurin Biotech Inc., priority 2014, dated 2020), this text covers IC50 for three compounds.

Where two headings read alike, the source gives them in different places.

For orientation: IC50 means the midpoint of a concentration-inhibition curve.

The test system of test [1] is BxPC-3 cells. The experiment in a line: Lactic dehydrogenase release from BxPC-3 cells. Format: cell-based, human. As to conditions: n=4, read-out: IC50, lactate dehydrogenase release from BxPC-3 cells. As for the experimental part:
(§1) Experiment 4 was designed to confirm apoptotic cell death of U251 cells induced by ATA, AQA, AHA, and ATAC by measuring release of lactic dehydrogenase into the cell medium. For serum lactate dehydrogenase determination, reaction supernatants ([…]) were pipetted into the wells of 96-well plates, followed by the addition of […] lactate solution (36 mg/mL in PBS) and […] INT (iodonitrotetrazolium chloride, 2-(4-iodophenyl)-3-(4-nitrophenyl)-5-phenyl-2H-tetrazolium chloride) solution (2 mg/mL in PBS). The enzymatic reaction was started by addition of […] of NAD^+/diaphorase solution (3 mg/mL NAD^+; 2.3 mg solid/mL diaphorase). After 1 h, optical densities were measured with a microplate reader using a 490 nm filter. The amount of LDH released was expressed as a percentage of the value obtained in comparative cells where cells were 100% lysed by 1% Triton X-100.
(§2) Experiment 8 was designed to confirm apoptotic cell death of BxPC-3 cells induced by ATA, AQA, AHA, and ATAC by the release of lactic dehydrogenase into the cell medium.

The subject of test [2] is human carcinoma SW 480 cells. Description: Lactic dehydrogenase release from SW 480 cells. Format: cell-based. As to conditions: n=4, read-out: IC50, lactate dehydrogenase release from SW 480 cells. As for the experimental part: as §1
Experiment 23 was designed to determine the effect of ATA, AQA, 15 AHA and ATAC on growth of the human colorectal cancer cell line SW 480. The protocol was identical to that used in Experiment 15(b) except that human colorectal cancer SW480 cells were utilized. Experiment 24 was designed to determine if apoptotic death of human carcinoma SW 480 cells was induced by ATA, AQA, AHA, and ATAC as determined by the release of lactic dehydrogenase into the cell medium. The protocol was identical to that used in Experiment 15(d) except that human carcinoma SW480 cells were used and the growth medium was DMEM.

For test [3], the system named is A549 cells. The experiment in a line: Lactic dehydrogenase release from A549 cells. Format: cell-based, human. As to conditions: n=4, read-out: IC50, lactate dehydrogenase release from A549 cells. How it is done: as §1, §2
Experiment 12 was designed to confirm apoptotic cell death of A549 cells induced by ATA, AQA, AHA, and ATAC by the release of lactic dehydrogenase into the cell medium. The protocol was identical to that used in Experiment 8 except A549 cells were used.

The test system of test [4] is colorectal adenocarcinoma LS180 cells. The experiment in a line: Lactic dehydrogenase release from LS180 cells. The format is cell-based, human. The settings on record: n=4, read-out: IC50, lactate dehydrogenase release from LS180 cells. As for the experimental part:
as §1
Experiment 20 was designed to determine if apoptotic death of colorectal adenocarcinoma LS180 cells was induced by ATA, AQA, AHA, and ATAC as determined by the release of lactic dehydrogenase into the cell medium. The protocol was identical to that used in Experiment 18(b) except that colorectal adenocarcinoma cells were used.

For test [5], the system named is BT 474 cells. The experiment in a line: Lactic dehydrogenase release from BT 474 cells. Format: cell-based, human. The settings on record: n=4, read-out: IC50, lactate dehydrogenase release from BT 474 cells. How it is done:
as §1
Experiment 14 was designed to determine if apoptotic cell death of BT 474 cells was induced by ATA, AQA, AHA, and ATAC as determined by the release of lactic dehydrogenase into the cell medium. The protocol was identical to that used in Experiment 5(d) except that BT 474 cells were used.

Test [6] deals with human bone osteosarcoma MNNG cells. The experiment in a line: MNNG cell growth in zymosan-activated human serum (MTT cell viability). The settings on record: 15% human serum, n=4, read-out: IC50, inhibition of MNNG cell growth induced by zymosan-activated human serum complement. The format is cell-based. As for the experimental part: (§3) Experiment 1 was designed to determine the effect of ATA, AHA, AQA and ATAC on U251 cell growth in the presence of complement activated human serum. In Experiment 1(a), U251 cells were treated with various concentrations of human serum (1, 5, 7.5, 10, 12.5, 15%) in DMEM and incubated with 1 μg/mL zymosan at 37° C. for 72 h. Control U251 cells (CON) were incubated in fresh DMEM only. As a further control U251 cells were treated with 10% human serum heated at 56° C. for 30 min to heat inactivate complement (HIS) before incubation with 1 μg/ml zymosan. In Experiment 1(b), U251 cells were treated with various concentrations of ATAC, ATA, AQA and AHA (0.1, 1, 5, 10, 30, 50 μM) in DMEM with 15% human serum and incubated with 1 μg/mL zymosan at 37 ° C. for 72 h. In both Experiments 1(a) and 1(b), following incubation, cell viability was evaluated by MTT (3-[4,5-dimethylthiazol-2-yl]-2,5 diphenyl tetrazolium bromide) assays by adding MTT to the cell cultures to reach a final concentration of 1 mg/mL. Following a 1 h incubation at 37° C., the dark crystals formed were dissolved by adding a SDS/DMF extraction buffer (300 μL, 20% sodium dodecyl sulfate, 50% N,N-dimethylformamide, pH 4.7). Plates were subsequently incubated overnight at 37° C. and optical densities at 570 nm were measured by transferring 100 μL aliquots to 96-well plates and using a plate reader with a corresponding filter.
Experiment 21 was designed to determine the effect of ATA, AQA, AHA and ATAC on growth of the human bone osteosarcoma MNNG cell line. The protocol was identical to that used in Experiment 19 (b) except that human bone osteosarcoma MNNG cells were utilized.

Test [7] has the same test system. The experiment in a line: Lactic dehydrogenase release from MNNG cells. Format: cell-based. The settings on record: n=4, read-out: IC50, lactate dehydrogenase release from MNNG cells. As for the experimental part: as §1
Experiment 22 was designed to determine if apoptotic death of human bone osteosarcoma MNNG cells was induced by ATA, AQA, AHA, and ATAC as determined by the release of lactic dehydrogenase into the cell medium. The protocol was identical to that used in Experiment 19(d) except that human bone osteosarcoma MNNG cells were used.

The subject of test [8] is human colorectal adenocarcinoma cell line LS180. Description: LS180 cell growth in zymosan-activated human serum (MTT cell viability). Format: cell-based. The settings on record: LS180 cells, EMEM, 15% human serum, n=4, read-out: IC50, inhibition of LS180 cell growth induced by zymosan-activated human serum complement. As for the experimental part:
as §3
Experiment 19 was designed to determine the effect of ATA, AQA, AHA and ATAC on growth of the human colorectal adenocarcinoma LS180 cell line. The protocol was identical to that used in Experiment 17(b) except that colorectal adenocarcinoma cells were utilized and the growth medium was EMEM.

The subject of test [9] is BxPC-3 human pancreatic adenocarcinoma cell line. Description: BxPC-3 cell growth in zymosan-activated human serum (MTT cell viability). Format: cell-based. The settings on record: BxPC-3 cells, RPMI 1640, 15% human serum, 1 μg/mL zymosan, 72 h, n=4, read-out: IC50, inhibition of BxPC-3 cell growth induced by zymosan-activated human serum complement. As for the experimental part: as §3
Experiment 5 was designed to determine the effect of ATA, AHA, AQA and ATAC on BxPC-3 cell growth in the presence of complement activated human serum.

On to `O=C(O)C1=CC(=C(c2ccc(O)c(C(=O)O)c2)c2ccc(O)c(C(=O)O)c2)C=CC1=O` [ATA, aurin tricarboxylic acid], for which the half-inhibitory concentration (IC50) amounted to 7.9 µM in test [1] (Homo sapiens); 4.7 µM in [2] (Homo sapiens, SW480, DMEM); 7.5 µM in test [3] (Homo sapiens); 4.9 µM in test [4] (Homo sapiens); 4.8 µM in [5] (Homo sapiens); 7.2 µM in test [6]. The 50% inhibitory concentration (IC50) in test [7] (Homo sapiens) was found to be 6.5 µM; in [8], 4.8 µM; in test [9] it was 6.5 µM.

In the case of aurin quadracarboxylic acid [AQA], the IC50 in [1] came to 8 µM; in test [2] (DMEM), 4.6 µM; in [3], 7.4 µM; in test [4], 5.1 µM; in test [5] it was 4.7 µM; in [6] it was 7.4 µM. Further, the figures for the IC50 in [7], in test [8] and in [9] were 6.4 µM, 5.2 µM and 6.7 µM, respectively.

As for aurin hexacarboxylic acid [AHA], the 50% inhibitory concentration (IC50) in test [1] came out at 8.1 µM; in [2] (DMEM), 4.9 µM; in test [3], 7.6 µM; in [4], 5 µM; in [5], 4.9 µM; in [6] it was 7.5 µM. The IC50 is 6.6 µM in test [7], 5.1 µM in test [8] and 6.8 µM in test [9].
